Data taken from US20220193111A1, “Method of Treatment” (The University Court of the University of Edinburgh, priority 2018, published 2022).

Test system: HUVECs treated with TNF-α/IL-1β
Test: Rescue of TNF-α/IL-1β-induced EndMT in HUVECs
Format: cell-based, human
Settings: 10 μM, HUVECs with TNF-α/IL-1β 6 days
Method: Human umbilical vein ECs (HUVECs; Lonza) were grown in EGM-2 (comprising EBM-2 with growth factors and other supplements) with 2% Foetal Bovine Serum. Confluent HUVECs were treated with 10 ng/ml TNF-α, IL-1β, TGFβ2 (PeproTech); medium and cytokines were changed every two days. SB431542 (Tocris) has been used at the dose of 10 μM. HEK293T cells (ATCC®, CRL-11268) were cultured in D-MEM with 10% FBS (Life Technologies).
Total RNA was extracted using miReasy kit (Qiagen). Real-time quantification to measure miRNAs was performed with the TaqMan miRNA reverse transcription kit and miRNA assay (Life Technology) using Lightcycler 480 (Roche). miRNAs expression was normalized to the U6 […] (snRU6). For mRNA analysis, cDNA was amplified by quantitative real-time PCR (qPCR) and normalized to 18S ribosomal RNA. Each reaction was performed in triplicate. Quantification was performed by the 2^−ΔΔCt method^52. qPCR was used to measure the expression of miR-148b (miR-148b-3p Thermo Fisher Scientific, Cat. #4426961), snRU6 (ThermoFisher Scientific, Cat. #4331182), TGFβ2, SMAD2, CD31, VE-Cadherin, COL1A1, α-SMA, SLUG, VIM, SNAIL, TWIST, ZEB1/2 and 18S rRNA. Primers are pre-designed from Sigma (KiCgStart™ Primers).
Lipofectamine RNAiMAX (Thermo Fisher Scientific) was used to transfect HUVECs with miR-148b mimic, anti-miR-148b and mimic or anti-miR control (25 nM and […], respectively final concentration) or with siRNA targeting SMAD2 (20 nM final concentration), according to the manufacturer's instructions. jetPEI-HUVECs (Polyplus) was used to transfect HUVECs with DNA plasmids. The following functional assays were performed: BrdU incorporation assay using Cell Proliferation colorimetric assay (Roche); Matrigel assay with HUVECs was performed as previously described using BD Matrigel Basement Membrane Matrix (BD Biosciences)^53.
Proteins were extracted from cultured cells or muscles by using ice-cold buffer A (50 mM Hepes, 150 mM NaCl, 1 mM EDTA, 1 mM EGTA, 25 mM NaF, 5 mM NaPPi, 1%Triton, 1% NP40, 1 mM Na3VO4, 0.25% sodium deoxycholate, 0.5 mM Na-orthovanadate, 1 mM benzamidine, 0.1 mM phenylmethylsulfonyl fluoride). Protein concentration was determined using the Bio-Rad Protein Assay Reagent (Bio-Rad Laboratories, UK). Detection of proteins by Western blot analyses was done following separation of whole cell extracts (20 μg) on SDS-polyacrylamide gels. Proteins were transferred to nitrocellulose membranes and probed with the following antibodies: TGFβ2 (Abcam, ab36495, 1:1000), SMAD2 (SantaCruz Biotechnology, Santa Cruz, Calif., USA; #3102, 1:1000), p-SMAD2 (465/467) (Cell Signaling; #3108, 1:1000); CD31 (Abcam., 1:1000), VE-Cadherin (Abcam, ab33168, 1:1000), COL1A1 (Abcam, ab138492, 1:200), FSP-1 (5100A4; Abcam, ab41532, 1:1000), SLUG (Abcam, ab27568, 1:1000), β-actin (Abcam, ab16039, 1:4000), HDAC3 (GeneTex GTX113303, 1:1000) and GAPDH (GeneTex, GT239, 1:1000) (both used as loading control). For detection, the inventors used secondary antibodies conjugated to horseradish peroxidase which were rabbit anti-mouse (Abcam, ab97046, 1:5000) and goat anti-rabbit (Abcam, ab6721, 1:10000). Detection was developed by chemiluminescence reaction (ECL) (Immunoblot, Millipore, 23225).
Cells were fixed using 4% paraformaldehyde in PBS at room temperature for 15 min. For intracellular staining, fixed cells were permeabilized using 0.5% Triton X-100 in PBS (Sigma-Aldrich) or 0.1% Saponin in PBS at room temperature for 10 min. The blocking of […] antibody activity was performed using 3% bovine serum albumin (BSA) in PBS for 1 hour. Samples were incubated with antibodies to CD31 (Abcam, ab28364, 1:50), VE-cadherin (Abcam, ab33168, 1:100), FSP-1 (Abcam, ab41532, 1:200) and COL1A1 (Abcam, ab138492, 1:100) in PBS containing 1% BSA at 4° C. overnight. […]

SMILES: NC(=O)c1ccc(-c2nc(-c3ccc4c(c3)OCO4)c(-c3ccccn3)[nH]2)cc1 [SB431542, reference compound]
- endothelial markers (CD31, VE-Cadherin) expression: did not rescue
- level of SMAD2 phosphorylation: reduced
- endothelial markers (CD31, VE-Cadherin) expression (listed as SB43152): did not restore
